This note sets out measurements from patent US20090047282A1, “Prophylactic/Therapeutic Agent for Cancer” (priority 2005, published 2009).

Where no end group is shown, it is not given here. The star is where a group is joined. Biotin = O=C1N[C@H]2[C@H](CS[C@H]2CCCCC(=O)*)N1

The subject of data set [1] is human HHAT. The data set can be described thus: Knockdown efficiency of siRNA checked with the TaqMan method (quantitative RT-PCR), human HHAT expression. It counts as cell-based. The following applies: HT-29 cells, 100 nM siRNA, 5th day after introduction, vs non-silencing siRNA. Here is the method: (§1) […] After culturing the cells overnight, siRNA to human Shh (Ambion; SEQ ID NO: 19), siRNA to human HHAT (Ambion; SEQ ID NO: 20), or non-silencing siRNA (Dhamacon, SEQ ID NO: 21) as a control was introduced. The introduction was performed by adding a mixture of 0.4 μl of DhamaFECT4 reagent (Dhamacon) per well and 100 nM of each siRNA to the cells. The knockdown efficiency of each siRNA at this point was checked with the TaqMan method. On the 5th day after the introduction of siRNA, total RNA was extracted from the HT-29 cells using RNeasy mini kit (QIAGEN), and cDNA was synthesized from a random primer using the TaqMan Gold RT-PCR kit (Applied Biosystems). 2 μl of the synthesized cDNA, 10 μl of 2×TaqMan Universal PCR Master Mix (Applied Biosystems), 1 μl of 20×TaqMan Gene Expression Assay (Applied Biosystems) to the human Shh or HHAT, and 7 μl of distilled water were added together to a total amount of 20 μl. This was used as a reaction solution of quantificative RT-PCR.
(§2) Regarding the reaction solution, the expression of human Shh or human HHAT was quantified in the ratio to GAPDH using the ABI PRISM 7700 Sequence Detection System. As compared with the control, the gene expression was suppressed by about 75% in the case of siRNA to human Shh and by about 60% in the case of siRNA to human HHAT.
Background: Real-time PCR tracks product formation cycle by cycle.

In data set [2] the test system is human HHAT. The experiment in a line: HHAT activity measurement with [3H] palmitoyl CoA and biotinylated substrate peptide on Streptavidin FlashPlate. It counts as biochemical. The following applies: 10 μM substrate peptide, reaction 1 hour, FIG. 2. From the text:
A peptide (Shh-(24-38)) having 15-mer peptide comprised of amino acids from the 24th position to the 38th position of human Shh (SEQ ID NO: 22) modified with biotin at the lysine residue at the carboxylic terminus, and a peptide (Shh-(24-45)) having 22-mer peptide comprised of amino acids from the 24th position to the 45th position of human Shh modified with biotin at the lysine residue at the carboxylic terminus, were synthesized as a substrate peptide. An HHAT activity measuring system was produced by adding 50 μl reaction buffer (10 mM Tris-HCl (pH7.4), 50 mM magnesium chloride, 2 μM [^3H] palmitoyl CoA, and 400 μg/ml of HHAT enzyme solution) to a 96-well plate coated with streptavidin and a scintillator (Streptavidin FlashPlate, PerkinElmer). The above-mentioned synthetic peptides were added to the reaction system and reacted for a predetermined period. Then, the reaction was terminated by adding 200 μl of 1% aqueous solution of Triton X-100 to the reaction solution. After the reaction, the radioactivity of the reaction solution was measured by the scintillation counter as an HHAT activity.
[^3H] palmitoyl CoA was prepared from [^3H] palmitic acid (GE Healthcare) by a method described in Methods in Enzymology, 250, 299-300, 1995. […]

The test system of a further data set is human Shh. The data set can be described thus: Knockdown efficiency of siRNA checked with the TaqMan method (quantitative RT-PCR), human Shh expression. It counts as cell-based. The following applies: HT-29 cells, 100 nM siRNA, 5th day after introduction, vs non-silencing siRNA. Here is the method:
as §1, §2

Regarding “siRNA to human HHAT: siRNA to human HHAT (Ambion; SEQ ID NO: 20) (GGAAUUUGAGCUGGAGACUTT; chemistry not given here)”, the “suppression of gene expression of human HHAT (ratio to GAPDH) compared with the control” value in the data set with human HHAT [1] is reported as “about 60%”. In the case of “Shh-(24-45): 22-mer peptide of amino acids 24 to 45 of human Shh, biotin-modified at the carboxy-terminal lysine residue; HHAT substrate peptide (CGPGRGFGKRRHPKKLTPLAYK(Biotin))”, in the data set on human HHAT [2], the “HHAT activity (radioactivity of [3H]-palmitic acid added to the substrate peptide) compared with control without HHAT enzyme solution” value was “conspicuous increase of the radioactivity”. Turning to “siRNA to human Shh: siRNA to human Shh (Ambion; SEQ ID NO: 19) (GGGAAGAUCUCCAGAAACUTT; chemistry not given here)”, the “suppression of gene expression of human Shh (ratio to GAPDH) compared with the control” value with human Shh is given as “about 75%”.

Take “Shh-(24-38): 15-mer peptide of amino acids 24 to 38 of human Shh (SEQ ID NO: 22), biotin-modified at the carboxy-terminal lysine residue; HHAT substrate peptide (CGPGRGFGKRRHPKK(Biotin))”: in the data set with human HHAT [2], the “HHAT activity (radioactivity of [3H]-palmitic acid added to the substrate peptide) compared with control without HHAT enzyme solution” value was “conspicuous increase of the radioactivity”.
